Test results reported in ChEMBL document CHEMBL1201862, “PubChem BioAssay data set” (2004).
Calls of active or inactive are those of the source.

What was measured:
[1] = cells; format: functional, cell-based
[2] = cells; format: functional, cell-based; remark: listed apart in the source
[3] = target: T1, Ubiquitin-conjugating enzyme E2 N (Homo sapiens, UniProt P61088); format: functional;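 note: Dose-response confirmation in a TR-FRET assay detecting UBC13-driven polyubiquitin chain formation, inhibition measured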
T1 sequence (P61088 whole entry): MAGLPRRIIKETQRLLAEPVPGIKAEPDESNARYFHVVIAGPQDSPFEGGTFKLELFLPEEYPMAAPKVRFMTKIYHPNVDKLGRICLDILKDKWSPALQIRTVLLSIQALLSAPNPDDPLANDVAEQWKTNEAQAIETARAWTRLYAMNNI

[4] = reduction of Shn3 3'UTR-driven luciferase in osteoblasts – cell-based, Clone20 osteoblasts, firefly luciferase, cherry-picked, dose response (AID 624132); format: functional;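 note: firefly luciferase luminescence from reporter carrying the Shn3 3'UTR in osteoblasts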
[5] = non-specific 3'UTR reporter inhibition in Clone20-Shn3RL – cell-based, Renilla luciferase, cherry-picked, counter-screen for Shn3 inhibitor project, dose response (AID 624133); format: functional
[6] = target: Paired box protein Pax-8 (Homo sapiens, UniProt Q06710); experiment: PAX8 transcriptional activity inhibition in RMG-I – RMG-I cells, luciferase, cherry-pick, dose response (AID 687027); format: functional, cell-based;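 note: luciferase reporter driven by Pax8 target thyroperoxidase promoter measured by SteadyGlo luminescence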
[7] = blockers of HIV-1 envelope-mediated cell-cell fusion – cherry-pick, dose response (AID 652057); format: functional, cell-based
[8] = off-target signal loss in HeLa-CEM21 co-culture – HeLa F-luc CTL cells, cherry-picked, counter-screen for HIV-1 Env fusion inhibitor project, dose response (AID 652040); format: functional, cell-based;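 note: potency for signal decrease marking cytotoxic or nonspecific inhibition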
[9] = HIV-1 AD8 envelope cell-cell fusion blockers – cherry-pick, dose response (AID 652062); format: functional, cell-based;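 note: luciferase signal from cell-cell fusion driven by HIV-1 clade B AD8 Env; potency is for inhibitors of fusion seen as a drop in luminescence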
[10] = test system: INS1; experiment: INS-1E survival protection against cytokine death – cell-based, luminescence, retest, dose response (AID 449756); format: functional; settings: Rattus norvegicus;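 note: cell death triggered by IL-1 beta plus TNF-alpha plus IFN-gamma mixture; protective hits raise ATP signal compared with cytokine alone wells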
[11] = viability of PTEN-deleted HCT116 cells – cell-based, HCT116 PTEN knockout, dose response (AID 1047); format: functional;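 note: HCT116 colon tumor cells with PTEN knocked out; cells exposed to compound for 60 hours before readout; potency for loss of cell viability measured by luminescence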
[12] = viability of HCT116 lacking mutant beta-catenin – cell-based, human colon tumor, dose response (AID 1045); format: functional;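 note: HCT116 colon tumor cells with beta catenin knocked out; cells exposed to compound for 60 hours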
[13] = target: T2, Heat shock factor protein 1 (Mus musculus, UniProt P38532); experiment: enhancement of HSF1-driven luciferase signal – cell-based, NIH3T3, luminescence, dose retest, confirmation (AID 435004); format: functional;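 note: stress induced by proteasome inhibitor MG132 added 30 min after compound; luciferase reporter driven by HSF1 response element in NIH3T3 cells; actives raise luminescence as potentiators of the MG132 stress response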
T2 sequence (P38532 whole entry): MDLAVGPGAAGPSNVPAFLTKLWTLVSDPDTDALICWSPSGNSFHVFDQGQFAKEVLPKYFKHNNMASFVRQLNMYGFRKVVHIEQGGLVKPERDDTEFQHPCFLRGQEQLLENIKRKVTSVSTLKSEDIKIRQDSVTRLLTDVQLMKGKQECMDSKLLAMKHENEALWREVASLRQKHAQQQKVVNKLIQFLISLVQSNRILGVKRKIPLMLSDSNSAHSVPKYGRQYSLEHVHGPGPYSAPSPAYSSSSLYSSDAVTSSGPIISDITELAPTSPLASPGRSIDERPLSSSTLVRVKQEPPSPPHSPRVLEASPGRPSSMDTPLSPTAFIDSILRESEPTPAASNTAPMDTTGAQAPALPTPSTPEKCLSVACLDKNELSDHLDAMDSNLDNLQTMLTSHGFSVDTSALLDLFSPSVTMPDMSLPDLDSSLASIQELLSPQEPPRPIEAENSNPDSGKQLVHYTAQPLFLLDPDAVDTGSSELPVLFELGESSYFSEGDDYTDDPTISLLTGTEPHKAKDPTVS

[14] = target: T3, Replicative DNA helicase DnaB (Mycobacterium tuberculosis, UniProt P9WMR3); experiment: DnaB intein splicing inhibitors, dose response, biochemical, cell-free fluorescence (AID 449749); format: functional
T3 sequence (P9WMR3 whole entry): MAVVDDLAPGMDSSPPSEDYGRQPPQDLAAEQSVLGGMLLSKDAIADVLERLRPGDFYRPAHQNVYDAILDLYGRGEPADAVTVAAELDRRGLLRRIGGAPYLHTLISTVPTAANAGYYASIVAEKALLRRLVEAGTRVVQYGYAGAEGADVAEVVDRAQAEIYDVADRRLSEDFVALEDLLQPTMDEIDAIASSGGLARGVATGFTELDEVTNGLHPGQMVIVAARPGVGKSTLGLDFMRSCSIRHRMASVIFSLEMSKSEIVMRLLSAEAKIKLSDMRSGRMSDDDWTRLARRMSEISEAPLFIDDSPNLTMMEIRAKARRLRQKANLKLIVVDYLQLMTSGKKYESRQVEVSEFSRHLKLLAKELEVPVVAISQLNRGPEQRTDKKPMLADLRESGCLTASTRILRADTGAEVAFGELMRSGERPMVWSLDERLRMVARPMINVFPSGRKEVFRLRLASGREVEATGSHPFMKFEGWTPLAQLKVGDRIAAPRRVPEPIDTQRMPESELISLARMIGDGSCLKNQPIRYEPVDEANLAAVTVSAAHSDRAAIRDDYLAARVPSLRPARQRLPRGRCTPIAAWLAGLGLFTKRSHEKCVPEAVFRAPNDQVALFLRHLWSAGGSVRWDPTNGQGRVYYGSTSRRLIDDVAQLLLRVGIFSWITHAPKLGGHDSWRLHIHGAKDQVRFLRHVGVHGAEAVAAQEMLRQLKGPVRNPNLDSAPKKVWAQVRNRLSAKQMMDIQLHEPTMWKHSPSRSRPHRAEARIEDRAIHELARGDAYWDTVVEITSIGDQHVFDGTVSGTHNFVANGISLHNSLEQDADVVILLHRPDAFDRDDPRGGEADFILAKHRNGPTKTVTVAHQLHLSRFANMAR

[15] = target: T4, Protein RecA (Mycobacterium tuberculosis, UniProt P9WHJ3); experiment: Fluorescence Cell-Free Homogeneous Dose Retest to Identify Inhibitors of RecA-Intein Splicing Activity. [Related pubchem assays (depositor defined):AID2097, AID2223, AID489010, AID492950]; format: functional
T4 sequence (P9WHJ3 whole entry): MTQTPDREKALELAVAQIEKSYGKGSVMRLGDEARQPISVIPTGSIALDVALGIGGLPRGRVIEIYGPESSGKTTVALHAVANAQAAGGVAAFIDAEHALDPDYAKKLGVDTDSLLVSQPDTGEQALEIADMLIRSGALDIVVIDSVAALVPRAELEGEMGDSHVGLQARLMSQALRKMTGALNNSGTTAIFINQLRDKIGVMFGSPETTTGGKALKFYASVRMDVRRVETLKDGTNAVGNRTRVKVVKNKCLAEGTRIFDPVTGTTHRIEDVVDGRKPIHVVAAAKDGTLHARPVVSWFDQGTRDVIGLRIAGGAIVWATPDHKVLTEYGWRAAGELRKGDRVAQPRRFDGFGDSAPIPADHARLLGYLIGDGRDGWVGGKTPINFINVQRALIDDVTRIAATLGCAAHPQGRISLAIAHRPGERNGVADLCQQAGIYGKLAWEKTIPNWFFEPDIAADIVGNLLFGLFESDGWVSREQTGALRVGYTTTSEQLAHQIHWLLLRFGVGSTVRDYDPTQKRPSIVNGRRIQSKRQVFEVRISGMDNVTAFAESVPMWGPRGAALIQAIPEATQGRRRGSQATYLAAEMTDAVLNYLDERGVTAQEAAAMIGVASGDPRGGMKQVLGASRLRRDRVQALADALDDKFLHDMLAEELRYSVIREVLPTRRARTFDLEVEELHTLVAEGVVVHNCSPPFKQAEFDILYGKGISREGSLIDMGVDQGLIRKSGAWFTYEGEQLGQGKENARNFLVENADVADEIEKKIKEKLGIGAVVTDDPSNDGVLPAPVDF

[16] = test system: SN12K1; experiment: cells; format: functional; settings: Homo sapiens
[17] = test system: P388; experiment: cells; format: functional; settings: Mus musculus;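 note: compound exposure lasted 48 hours before growth was measured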
[18] = target: T5, Microphthalmia-associated transcription factor (Homo sapiens, UniProt O75030); experiment: reducers of TRPM1 reporter luminescence, concentration series – cell-based, SK-MEL-5, cherry-picked, set 3, MITF inhibitor project, dose response (AID 493073); format: functional;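 note: SK-MEL-5 melanoma cells with luciferase driven by the MITF target TRPM1 promoter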
T5 sequence (O75030 whole entry): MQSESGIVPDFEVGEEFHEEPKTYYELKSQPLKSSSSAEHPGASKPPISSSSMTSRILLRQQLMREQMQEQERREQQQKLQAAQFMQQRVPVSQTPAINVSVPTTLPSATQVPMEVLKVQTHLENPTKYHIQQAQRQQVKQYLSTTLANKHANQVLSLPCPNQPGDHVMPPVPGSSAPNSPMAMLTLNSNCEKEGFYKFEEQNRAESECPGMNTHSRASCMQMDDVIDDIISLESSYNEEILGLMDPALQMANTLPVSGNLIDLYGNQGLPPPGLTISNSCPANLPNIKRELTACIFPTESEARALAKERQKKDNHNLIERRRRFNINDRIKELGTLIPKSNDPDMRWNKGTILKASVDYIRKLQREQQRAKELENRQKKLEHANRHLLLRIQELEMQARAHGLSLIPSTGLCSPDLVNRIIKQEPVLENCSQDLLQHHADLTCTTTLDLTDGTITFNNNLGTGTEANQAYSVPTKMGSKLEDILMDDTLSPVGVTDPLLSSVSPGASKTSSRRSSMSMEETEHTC

[19] = target: Heat shock protein HSP 90-alpha (Homo sapiens, UniProt P07900); format: functional, organism-based

Chain of Paired box protein Pax-8 (Q06710 whole entry, the tested form may be a part): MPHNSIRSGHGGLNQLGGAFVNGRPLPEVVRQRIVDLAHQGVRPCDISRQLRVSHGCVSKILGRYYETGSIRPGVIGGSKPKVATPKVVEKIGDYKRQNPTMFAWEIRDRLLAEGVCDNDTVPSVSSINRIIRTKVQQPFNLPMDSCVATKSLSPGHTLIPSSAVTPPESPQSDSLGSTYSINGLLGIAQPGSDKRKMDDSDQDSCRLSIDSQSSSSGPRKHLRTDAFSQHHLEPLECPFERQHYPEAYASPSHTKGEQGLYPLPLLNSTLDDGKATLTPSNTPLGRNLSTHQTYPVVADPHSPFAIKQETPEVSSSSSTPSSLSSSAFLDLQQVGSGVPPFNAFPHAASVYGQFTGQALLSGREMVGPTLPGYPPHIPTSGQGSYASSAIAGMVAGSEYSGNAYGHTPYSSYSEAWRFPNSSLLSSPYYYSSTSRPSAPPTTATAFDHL

COc1ccc2[nH]c(-c3cccc(N)c3)nc2c1
EC50 [1]: > 350 µM (not active) | EC50 [2]: 6.92 µM (active)

CC(C(=O)NC1CCCC1)N(C(=O)c1snc(C(N)=O)c1N)c1ccc2c(c1)OCCO2 (stereo unspecified)
IC50 [3]: > 20 µM (inactive)

COC(=O)C1=C(c2ccc(F)cc2OCc2ccccc2)C[C@@H]2CC[C@H]1N2C(=O)NC1Cc2ccccc2C1
AC50 [4]: 8 µM (active) | AC50 [5]: 29.3 µM (active) | AC50 [6]: 9.27 µM (active)

CCOC(=O)c1cccc(NS(=O)(=O)c2ccc(NC(C)=O)cc2)c1
AC50 [7]: 4.26 µM (active) | AC50 [8]: 39.7 µM (active) | AC50 [9]: 10 µM (active)

CC(C)OCCCN=C(S)N1CCC(C(=O)c2ccc(Cl)cc2)CC1
AC50 [10]: 36.9 µM (active)

Cc1cc(C(=O)c2ccc(C(C)(C)C)cc2)c(NC(=O)CCl)s1
EC50 [11]: 9.12 µM (active) | EC50 [12]: 8.47 µM (active) | EC50 [13]: 7.73 µM (active) | AC50 [14]: 7.58 µM (active) | EC50 [15]: 2.97 µM (active)

COc1ccc(C)c2sc(N(CCCN(C)C)C(=O)c3ccc(S(=O)(=O)N(C)C)cc3)nc12
IC50 [3]: > 20 µM (inactive)

CC[C@@H](C)[C@@H]1CN([C@@H](C)CN2CCC[C@H]2CN2C(N)=NC[C@@H]2Cc2ccccc2)C(=N)N1CCc1ccc(Cl)c(Cl)c1
IC50 [3]: > 20 µM (inactive)

Nc1c(/N=N/c2ccc(-c3ccc(/N=N/c4c(O)ccc5cc(S(=O)(=O)O)cc(S(=O)(=O)O)c45)cc3)cc2)c(S(=O)(=O)O)cc2cc(S(=O)(=O)O)c(/N=N/c3ccccc3)c(O)c12
GI50 [16]: > 100 µM (inactive) | GI50 [17]: > 100 µM (inactive)

COC(=O)c1cc(=O)n(CCc2ccccc2F)/c(=N/c2ccc(F)c(Cl)c2)s1
AC50 [10]: 8.13 µM (active)

COc1ccc(NC(=O)CCC(=O)N/N=C/c2ccc([N+](=O)[O-])s2)cc1
EC50 [11]: 11.5 µM (active) | EC50 [12]: 11.3 µM (active) | AC50 [18]: 7.62 µM (active) | AC50 [19]: 2.7 µM (active)

N/C(S)=N/N=C/c1ccc(O)cn1
GI50 [16]: 3.61 µM (inactive) | GI50 [17]: 1.95 µM (inactive)
